Measurements taken from ChEMBL document CHEMBL5465560, “Selectivity Literature for EUbOPEN Chemogenomic Library” (2024).

Experiments:
[1] = target: T1, Serine/threonine-protein kinase RIO3 (Homo sapiens) (UniProt O14730); conditions: at 10 µM
T1 sequence (whole entry): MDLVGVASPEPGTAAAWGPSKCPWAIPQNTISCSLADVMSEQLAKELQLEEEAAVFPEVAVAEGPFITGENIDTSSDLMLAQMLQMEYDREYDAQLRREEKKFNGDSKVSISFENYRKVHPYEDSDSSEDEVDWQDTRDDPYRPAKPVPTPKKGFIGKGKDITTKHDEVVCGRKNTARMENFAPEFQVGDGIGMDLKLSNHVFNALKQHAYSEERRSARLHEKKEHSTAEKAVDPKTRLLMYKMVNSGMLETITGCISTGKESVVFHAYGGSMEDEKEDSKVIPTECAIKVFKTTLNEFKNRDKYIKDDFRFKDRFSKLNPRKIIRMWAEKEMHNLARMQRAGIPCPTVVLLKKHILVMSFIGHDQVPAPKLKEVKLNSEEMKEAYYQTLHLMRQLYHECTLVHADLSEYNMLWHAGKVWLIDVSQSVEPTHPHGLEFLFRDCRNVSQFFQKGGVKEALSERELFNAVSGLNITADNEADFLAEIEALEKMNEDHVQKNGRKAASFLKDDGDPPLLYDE

[2] = target: Calcium/calmodulin-dependent protein kinase kinase 1 (Homo sapiens) (UniProt Q8N5S9); assay: Selectivity interaction (KinomeScan (DiscoverX)) EUB0000092b CAMKK1; conditions: at 10 µM
Chain of Calcium/calmodulin-dependent protein kinase kinase 1 (Homo sapiens) (Q8N5S9 whole entry, looked up): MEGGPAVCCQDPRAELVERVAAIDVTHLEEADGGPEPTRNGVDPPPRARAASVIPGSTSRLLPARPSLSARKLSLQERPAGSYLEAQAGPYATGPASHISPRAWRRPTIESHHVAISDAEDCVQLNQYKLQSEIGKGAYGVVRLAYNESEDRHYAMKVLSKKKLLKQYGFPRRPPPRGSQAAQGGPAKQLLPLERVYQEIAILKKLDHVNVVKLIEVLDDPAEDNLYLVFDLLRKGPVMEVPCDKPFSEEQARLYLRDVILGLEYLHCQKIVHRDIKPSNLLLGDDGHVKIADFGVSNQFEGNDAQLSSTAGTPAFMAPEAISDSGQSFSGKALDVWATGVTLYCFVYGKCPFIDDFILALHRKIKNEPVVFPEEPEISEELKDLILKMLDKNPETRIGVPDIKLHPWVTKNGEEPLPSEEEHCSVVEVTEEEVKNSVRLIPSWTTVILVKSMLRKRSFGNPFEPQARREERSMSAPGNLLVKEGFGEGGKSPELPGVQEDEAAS

[3] = target: T2, Hormonally up-regulated neu tumor-associated kinase (Homo sapiens) (UniProt P57058); assay: Selectivity interaction (LanthaScreen Eu Kinase Binding Assay) EUB0001632a HUNK; conditions: at 10 µM
T2 sequence (whole entry): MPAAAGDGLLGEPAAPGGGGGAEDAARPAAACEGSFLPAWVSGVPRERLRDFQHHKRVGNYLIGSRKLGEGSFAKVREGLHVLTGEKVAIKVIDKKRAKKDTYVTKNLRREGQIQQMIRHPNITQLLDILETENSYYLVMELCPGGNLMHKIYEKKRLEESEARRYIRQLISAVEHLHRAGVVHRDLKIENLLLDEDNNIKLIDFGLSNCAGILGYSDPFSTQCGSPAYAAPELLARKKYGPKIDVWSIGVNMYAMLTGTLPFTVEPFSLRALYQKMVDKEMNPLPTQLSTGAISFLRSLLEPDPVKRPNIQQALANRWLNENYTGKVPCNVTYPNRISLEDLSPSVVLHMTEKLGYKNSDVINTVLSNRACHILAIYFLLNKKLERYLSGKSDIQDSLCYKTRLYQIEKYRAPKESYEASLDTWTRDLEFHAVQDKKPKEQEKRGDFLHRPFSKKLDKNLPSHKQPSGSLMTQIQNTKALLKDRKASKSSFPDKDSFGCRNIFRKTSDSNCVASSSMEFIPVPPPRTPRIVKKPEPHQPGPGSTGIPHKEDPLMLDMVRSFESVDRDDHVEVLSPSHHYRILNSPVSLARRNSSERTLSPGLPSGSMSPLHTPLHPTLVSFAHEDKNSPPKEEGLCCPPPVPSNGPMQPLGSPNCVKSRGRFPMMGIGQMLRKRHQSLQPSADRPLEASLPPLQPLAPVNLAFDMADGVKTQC

[4] = target: Fibroblast growth factor receptor 3 (Homo sapiens, UniProt P22607); assay: Selectivity interaction (Kinase panel (Invitrogen)) EUB0000639a FGFR3; conditions: at 200 nM
Chain of Fibroblast growth factor receptor 3 (P22607 23-806 limits assumed): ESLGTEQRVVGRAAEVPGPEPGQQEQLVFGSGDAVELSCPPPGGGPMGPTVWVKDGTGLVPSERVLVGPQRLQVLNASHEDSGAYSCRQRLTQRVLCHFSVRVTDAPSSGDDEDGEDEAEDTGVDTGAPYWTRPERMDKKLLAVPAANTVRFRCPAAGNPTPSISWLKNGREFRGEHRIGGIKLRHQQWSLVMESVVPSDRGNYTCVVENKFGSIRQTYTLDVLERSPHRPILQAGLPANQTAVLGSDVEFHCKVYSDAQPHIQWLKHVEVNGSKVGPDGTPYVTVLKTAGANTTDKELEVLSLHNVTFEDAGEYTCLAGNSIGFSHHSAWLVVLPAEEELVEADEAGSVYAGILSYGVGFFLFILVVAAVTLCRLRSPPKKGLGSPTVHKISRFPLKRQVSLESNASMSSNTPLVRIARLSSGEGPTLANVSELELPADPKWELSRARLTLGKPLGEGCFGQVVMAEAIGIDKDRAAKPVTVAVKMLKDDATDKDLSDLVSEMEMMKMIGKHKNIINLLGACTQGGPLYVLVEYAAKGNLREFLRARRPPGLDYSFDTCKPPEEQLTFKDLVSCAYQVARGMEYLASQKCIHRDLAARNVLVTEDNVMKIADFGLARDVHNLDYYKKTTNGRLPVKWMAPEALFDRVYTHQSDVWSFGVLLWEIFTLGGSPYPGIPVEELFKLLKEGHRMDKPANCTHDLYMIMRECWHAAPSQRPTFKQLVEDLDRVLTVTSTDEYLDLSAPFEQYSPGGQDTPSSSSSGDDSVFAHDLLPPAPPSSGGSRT

[5] = target: T3, Muscarinic acetylcholine receptor M2 (Homo sapiens) (UniProt P08172); assay: Selectivity interaction (Panel of kinases, GPCRs, ion channels and transporters (enzymatic assay)) EUB0000223bCl CHRM2
T3 sequence (whole entry): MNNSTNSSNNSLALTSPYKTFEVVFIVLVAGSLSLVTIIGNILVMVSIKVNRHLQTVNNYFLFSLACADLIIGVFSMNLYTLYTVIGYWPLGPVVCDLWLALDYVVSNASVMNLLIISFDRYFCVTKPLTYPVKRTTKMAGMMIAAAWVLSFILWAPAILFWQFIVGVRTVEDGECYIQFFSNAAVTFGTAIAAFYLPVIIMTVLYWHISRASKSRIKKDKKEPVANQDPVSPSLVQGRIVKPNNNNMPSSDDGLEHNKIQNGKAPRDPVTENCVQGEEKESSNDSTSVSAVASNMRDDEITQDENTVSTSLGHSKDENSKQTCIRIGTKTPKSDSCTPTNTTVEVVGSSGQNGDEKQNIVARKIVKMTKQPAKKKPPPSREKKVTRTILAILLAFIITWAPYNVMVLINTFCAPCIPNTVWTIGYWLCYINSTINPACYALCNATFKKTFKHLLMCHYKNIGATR

[6] = target: T4, Phosphatidylinositol 4,5-bisphosphate 3-kinase catalytic subunit delta isoform (Homo sapiens) (UniProt O00329); assay: Selectivity interaction (ActivX KiNativ screen (ex vivo kinase selectivity in human PBMCs)) EUB0001619a PIK3CD; format: cell-based; conditions: PBMC, at 1 µM
T4 sequence (whole entry): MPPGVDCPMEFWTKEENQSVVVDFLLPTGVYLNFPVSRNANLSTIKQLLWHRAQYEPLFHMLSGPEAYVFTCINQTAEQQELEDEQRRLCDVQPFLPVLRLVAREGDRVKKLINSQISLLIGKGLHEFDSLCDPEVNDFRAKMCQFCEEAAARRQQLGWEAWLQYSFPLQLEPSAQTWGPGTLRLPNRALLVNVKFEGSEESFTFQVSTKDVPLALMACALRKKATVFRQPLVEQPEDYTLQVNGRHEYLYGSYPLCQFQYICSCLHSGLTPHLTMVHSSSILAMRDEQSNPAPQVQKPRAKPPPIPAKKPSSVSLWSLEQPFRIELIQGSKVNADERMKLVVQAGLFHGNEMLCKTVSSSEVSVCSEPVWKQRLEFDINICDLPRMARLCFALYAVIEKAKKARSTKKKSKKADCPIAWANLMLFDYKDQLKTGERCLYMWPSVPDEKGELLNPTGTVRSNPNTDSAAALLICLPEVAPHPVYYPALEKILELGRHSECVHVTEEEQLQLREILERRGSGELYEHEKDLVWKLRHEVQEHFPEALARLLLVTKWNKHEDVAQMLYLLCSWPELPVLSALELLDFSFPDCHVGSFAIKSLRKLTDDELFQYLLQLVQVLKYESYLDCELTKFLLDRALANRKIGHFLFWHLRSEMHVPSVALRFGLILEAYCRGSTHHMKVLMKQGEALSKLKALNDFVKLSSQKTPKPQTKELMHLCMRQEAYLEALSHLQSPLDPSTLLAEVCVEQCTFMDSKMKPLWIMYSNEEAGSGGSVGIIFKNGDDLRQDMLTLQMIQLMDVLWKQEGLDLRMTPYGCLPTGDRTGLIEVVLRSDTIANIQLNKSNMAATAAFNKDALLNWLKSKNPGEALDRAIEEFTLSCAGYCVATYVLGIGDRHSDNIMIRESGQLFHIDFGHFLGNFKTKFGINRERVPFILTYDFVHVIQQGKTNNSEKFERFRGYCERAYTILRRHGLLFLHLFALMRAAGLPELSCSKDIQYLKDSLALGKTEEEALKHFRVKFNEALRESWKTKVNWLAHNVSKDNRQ

## CCN(CC)CCCCNc1ncc2cc(-c3cc(OC)cc(OC)c3)c(NC(=O)NC(C)(C)C)nc2n1
[1]
  % of control: 100%

## CCC(=O)N1CCN(c2ccc(-n3c(=O)ccc4cnc5ccc(-c6cnc7ccccc7c6)cc5c43)cc2C(F)(F)F)CC1
[2]
  % of control: 80%

## Cn1cc(-n2cnc3c(NCc4nc5cc(Cl)c(Cl)cc5[nH]4)nc(N4CCOCC4)nc32)cn1
[3]
  % of inhibition: -12%

## CC[C@@H]1[C@H](F)C(=O)N[C@@H]1COc1nccc2cc(C(N)=O)c(OC)cc12 [ZIMLOVISERTIB]
[4]
  % of inhibition: 2.45%

## COc1cc(C(=O)N2CC[C@@H](O)[C@@H](N)C2)cc2nc(-c3cc4ccccc4n3CC3CC3)n(C)c12
[5]
  pXC50: < 4.8 M

## N#Cc1cccc(-c2c[nH]c3ncnc(N4CCOCC4)c23)c1
[6]
  % of inhibition: -12%
